≈ marks a conversion by molar mass, not a printed value. Read-outs that look alike come from different tables or passages of the source.
How the values were obtained:
human (hACC2) = human (hACC2) (Homo sapiens, UniProt O00763); test: In vitro ACC inhibition assay (ADP-Glo), hACC2; type: biochemical; details: 5 nM ACC2, 20 μM ATP, 20 μM acetyl-CoA
Protocol: The detailed procedure is as follows. […] 10 μL ADP glo reagent was added. […] 20 μL kinase detection reagent was added.

C. albicans = test: Antifungal Activity Assay (broth microtiter MIC), C. albicans; type: cell-based, Candida albicans; details: Candida albicans, ATCC90028, 48 h
Procedure, shortened: (§1)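 CLSI M27-A3 microdilution; RPMI 1640+MOPS; 2.5×10^3 CFU/mL final inoculum; cultures from Sabouraud dextrose agar, 35° C overnight; compound working solution 128 μg/mL from 1 mg/mL DMSO stock; visual MIC at 48 h vs growth control.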

C. krusei = test: Antifungal Activity Assay (broth microtiter MIC), C. krusei; type: cell-based, Candida krusei; details: Pichia kudriavzevii, ATCC6258, 48 h
Procedure, shortened: as §1

C. parapsilosis = test: Antifungal Activity Assay (broth microtiter MIC), C. parapsilosis; type: cell-based, Candida parapsilosis; details: Lodderomyces parapsilosis, ATCC22019, 48 h
Procedure, shortened: as §1

Botrtyis cinerea (Bc) = test: Growth inhibition assay of fungal pathogens, Bc; type: cell-based; details: 48 h, growth inhibition at 48 hours vs 2% DMSO control
Procedure, shortened: (§2)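 Spore suspension in 17% V8 liquid media; cpd final 50/10/2 or 2/0.4/0.08 ppm, 2% DMSO. OD600 + visual, 24 & 48 h; % inhibition at 48 h vs 2% DMSO ctrl.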

[1] = system: Collectotrichum graminicola (Cg); test: Growth inhibition assay of fungal pathogens, Cg; type: cell-based; details: 48 h, growth inhibition at 48 hours vs 2% DMSO control
Procedure, shortened: as §2

Diplodia maydis (Dm) = test: Growth inhibition assay of fungal pathogens, Dm; type: cell-based; details: Stenocarpella maydis, 48 h, growth inhibition at 48 hours vs 2% DMSO control
Procedure, shortened: as §2

[2] = system: Fusarium moniliforme (Fm); test: Growth inhibition assay of fungal pathogens, Fm; type: cell-based; details: Fusarium verticillioides, 48 h, read-out: Concentration at 90% Inhibition Fm
Procedure, shortened: as §2

[3] = system: Fusarium virguliforme (Fv); test: Growth inhibition assay of fungal pathogens, Fv; type: cell-based; details: 48 h
Procedure, shortened: as §2

[4] = system: Phytophthora capsici (Pc); test: Growth inhibition assay of fungal pathogens, Pc; type: cell-based; details: 48 h
Procedure, shortened: as §2

Rhizoctonia solani (Rs) = test: Growth inhibition assay of fungal pathogens, Rs; type: cell-based; details: 48 h
Septoria tritici (St) = test: Growth inhibition assay of fungal pathogens, St; type: cell-based; details: Zymoseptoria tritici, 48 h, growth inhibition at 48 hours vs 2% DMSO control
Procedure, shortened: as §2

fungal (fACC2) = fungal (fACC2) (UniProt Q00955); details: read-out: fACC2 (in vitro ACC2 Inhibition Assay, IC50), ADP-Glo, 5 nM ACC2, 20 μM ATP, 20 μM acetyl-CoA
[5] = Table 3a, ATCC 90028, 3 replicates, MIC recorded at 48 h, read-out: MIC, C. albicans ATCC 90028
[6] = Table 3b (additional results), ATCC 90028, 3 replicates, MIC recorded at 48 h, read-out: MIC, C. albicans ATCC 90028
[7] = Table 3a, ATCC 6258, 3 replicates, MIC recorded at 48 h, read-out: MIC, C. krusei ATCC 6258
[8] = Table 3b (additional results), ATCC 6258, 3 replicates, MIC recorded at 48 h, read-out: MIC, C. krusei ATCC 6258
[9] = Table 3a, ATCC 22019, 3 replicates, MIC recorded at 48 h, read-out: MIC, C. parapsilosis ATCC 22019
[10] = Table 3b (additional results), ATCC 22019, 3 replicates, MIC recorded at 48 h, read-out: MIC, C. parapsilosis ATCC 22019
[11] = Botrtyis cinerea, read-out: Concentration at 90% Inhibition Bc
[12] = Collectotrichum graminicola, read-out: Concentration at 90% Inhibition Cg
[13] = Diplodia maydis, read-out: Concentration at 90% Inhibition Dm
[14] = Fusarium moniliforme, growth inhibition at 48 hours vs 2% DMSO control
[15] = growth inhibition at 48 hours vs 2% DMSO control, read-out: Concentration at 90% Inhibition Fv
[16] = growth inhibition at 48 hours vs 2% DMSO control, read-out: Concentration at 90% Inhibition Pc
[17] = mycelial plugs, growth inhibition at 48 hours vs 2% DMSO control, read-out: Concentration at 90% Inhibition Rs
[18] = Septoria tritici, read-out: Concentration at 90% Inhibition St

Sequence of human (hACC2) (O00763 whole entry): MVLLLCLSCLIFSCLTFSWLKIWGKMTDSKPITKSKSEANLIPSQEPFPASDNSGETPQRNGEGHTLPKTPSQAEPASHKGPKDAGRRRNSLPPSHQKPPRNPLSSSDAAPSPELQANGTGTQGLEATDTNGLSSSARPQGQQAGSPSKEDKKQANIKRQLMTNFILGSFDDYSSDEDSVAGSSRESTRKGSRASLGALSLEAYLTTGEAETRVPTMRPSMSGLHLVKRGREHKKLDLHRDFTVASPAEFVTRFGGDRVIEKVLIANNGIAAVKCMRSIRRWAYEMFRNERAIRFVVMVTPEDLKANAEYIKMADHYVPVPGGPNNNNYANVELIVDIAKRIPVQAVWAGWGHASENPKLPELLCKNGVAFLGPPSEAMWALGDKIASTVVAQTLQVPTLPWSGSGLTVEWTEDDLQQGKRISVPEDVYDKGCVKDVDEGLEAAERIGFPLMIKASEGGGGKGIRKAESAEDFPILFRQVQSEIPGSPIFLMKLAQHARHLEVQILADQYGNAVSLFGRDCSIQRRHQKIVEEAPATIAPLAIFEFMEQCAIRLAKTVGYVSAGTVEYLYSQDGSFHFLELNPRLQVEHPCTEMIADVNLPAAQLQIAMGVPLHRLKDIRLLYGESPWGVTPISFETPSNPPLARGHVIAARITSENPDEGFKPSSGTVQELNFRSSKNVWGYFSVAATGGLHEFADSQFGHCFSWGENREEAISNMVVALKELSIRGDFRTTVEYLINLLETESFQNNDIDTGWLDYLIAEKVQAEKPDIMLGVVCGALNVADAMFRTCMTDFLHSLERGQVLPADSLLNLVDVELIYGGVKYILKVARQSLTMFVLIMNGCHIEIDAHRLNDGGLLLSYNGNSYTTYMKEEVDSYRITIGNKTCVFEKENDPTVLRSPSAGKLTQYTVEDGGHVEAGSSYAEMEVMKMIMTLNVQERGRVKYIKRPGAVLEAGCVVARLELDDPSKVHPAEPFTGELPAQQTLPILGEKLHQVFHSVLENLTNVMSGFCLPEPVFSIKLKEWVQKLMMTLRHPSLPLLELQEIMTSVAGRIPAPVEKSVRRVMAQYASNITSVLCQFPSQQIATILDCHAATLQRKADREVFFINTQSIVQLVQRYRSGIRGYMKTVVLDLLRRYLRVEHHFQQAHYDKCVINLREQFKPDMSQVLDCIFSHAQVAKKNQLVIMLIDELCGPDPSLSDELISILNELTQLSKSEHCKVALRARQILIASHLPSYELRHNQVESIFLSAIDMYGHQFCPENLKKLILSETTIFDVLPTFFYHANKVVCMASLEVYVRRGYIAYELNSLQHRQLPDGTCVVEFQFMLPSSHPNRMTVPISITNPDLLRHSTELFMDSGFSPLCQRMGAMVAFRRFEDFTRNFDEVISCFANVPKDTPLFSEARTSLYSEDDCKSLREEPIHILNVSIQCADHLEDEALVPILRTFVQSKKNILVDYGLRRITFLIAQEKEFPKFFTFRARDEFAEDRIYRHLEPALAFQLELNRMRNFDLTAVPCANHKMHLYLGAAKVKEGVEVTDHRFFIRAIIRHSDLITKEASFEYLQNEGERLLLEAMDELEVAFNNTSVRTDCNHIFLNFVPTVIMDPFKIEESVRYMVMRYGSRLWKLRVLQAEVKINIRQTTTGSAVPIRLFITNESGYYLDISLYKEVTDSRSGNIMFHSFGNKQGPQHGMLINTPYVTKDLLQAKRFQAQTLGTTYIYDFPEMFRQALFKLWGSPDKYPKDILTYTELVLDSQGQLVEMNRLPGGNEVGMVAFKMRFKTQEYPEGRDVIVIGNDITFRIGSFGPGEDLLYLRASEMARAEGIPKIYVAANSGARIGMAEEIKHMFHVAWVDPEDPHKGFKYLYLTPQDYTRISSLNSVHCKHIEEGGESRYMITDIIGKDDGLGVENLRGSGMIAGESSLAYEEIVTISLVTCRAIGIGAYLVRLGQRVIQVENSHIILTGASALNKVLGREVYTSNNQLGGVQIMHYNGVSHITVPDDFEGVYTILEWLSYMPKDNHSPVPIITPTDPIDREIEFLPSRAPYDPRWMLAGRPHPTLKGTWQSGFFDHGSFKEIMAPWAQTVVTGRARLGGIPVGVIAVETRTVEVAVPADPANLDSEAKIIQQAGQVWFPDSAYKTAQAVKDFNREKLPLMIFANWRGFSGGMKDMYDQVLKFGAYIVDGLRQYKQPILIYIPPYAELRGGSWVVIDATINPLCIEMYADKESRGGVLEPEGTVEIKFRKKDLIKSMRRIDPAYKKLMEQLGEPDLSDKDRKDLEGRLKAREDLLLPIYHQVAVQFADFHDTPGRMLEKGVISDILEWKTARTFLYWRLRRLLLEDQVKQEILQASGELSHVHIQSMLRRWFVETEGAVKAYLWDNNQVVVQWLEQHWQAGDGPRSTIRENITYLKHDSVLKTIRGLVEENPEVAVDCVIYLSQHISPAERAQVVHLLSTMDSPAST
Sequence of fungal (fACC2) (Q00955 whole entry): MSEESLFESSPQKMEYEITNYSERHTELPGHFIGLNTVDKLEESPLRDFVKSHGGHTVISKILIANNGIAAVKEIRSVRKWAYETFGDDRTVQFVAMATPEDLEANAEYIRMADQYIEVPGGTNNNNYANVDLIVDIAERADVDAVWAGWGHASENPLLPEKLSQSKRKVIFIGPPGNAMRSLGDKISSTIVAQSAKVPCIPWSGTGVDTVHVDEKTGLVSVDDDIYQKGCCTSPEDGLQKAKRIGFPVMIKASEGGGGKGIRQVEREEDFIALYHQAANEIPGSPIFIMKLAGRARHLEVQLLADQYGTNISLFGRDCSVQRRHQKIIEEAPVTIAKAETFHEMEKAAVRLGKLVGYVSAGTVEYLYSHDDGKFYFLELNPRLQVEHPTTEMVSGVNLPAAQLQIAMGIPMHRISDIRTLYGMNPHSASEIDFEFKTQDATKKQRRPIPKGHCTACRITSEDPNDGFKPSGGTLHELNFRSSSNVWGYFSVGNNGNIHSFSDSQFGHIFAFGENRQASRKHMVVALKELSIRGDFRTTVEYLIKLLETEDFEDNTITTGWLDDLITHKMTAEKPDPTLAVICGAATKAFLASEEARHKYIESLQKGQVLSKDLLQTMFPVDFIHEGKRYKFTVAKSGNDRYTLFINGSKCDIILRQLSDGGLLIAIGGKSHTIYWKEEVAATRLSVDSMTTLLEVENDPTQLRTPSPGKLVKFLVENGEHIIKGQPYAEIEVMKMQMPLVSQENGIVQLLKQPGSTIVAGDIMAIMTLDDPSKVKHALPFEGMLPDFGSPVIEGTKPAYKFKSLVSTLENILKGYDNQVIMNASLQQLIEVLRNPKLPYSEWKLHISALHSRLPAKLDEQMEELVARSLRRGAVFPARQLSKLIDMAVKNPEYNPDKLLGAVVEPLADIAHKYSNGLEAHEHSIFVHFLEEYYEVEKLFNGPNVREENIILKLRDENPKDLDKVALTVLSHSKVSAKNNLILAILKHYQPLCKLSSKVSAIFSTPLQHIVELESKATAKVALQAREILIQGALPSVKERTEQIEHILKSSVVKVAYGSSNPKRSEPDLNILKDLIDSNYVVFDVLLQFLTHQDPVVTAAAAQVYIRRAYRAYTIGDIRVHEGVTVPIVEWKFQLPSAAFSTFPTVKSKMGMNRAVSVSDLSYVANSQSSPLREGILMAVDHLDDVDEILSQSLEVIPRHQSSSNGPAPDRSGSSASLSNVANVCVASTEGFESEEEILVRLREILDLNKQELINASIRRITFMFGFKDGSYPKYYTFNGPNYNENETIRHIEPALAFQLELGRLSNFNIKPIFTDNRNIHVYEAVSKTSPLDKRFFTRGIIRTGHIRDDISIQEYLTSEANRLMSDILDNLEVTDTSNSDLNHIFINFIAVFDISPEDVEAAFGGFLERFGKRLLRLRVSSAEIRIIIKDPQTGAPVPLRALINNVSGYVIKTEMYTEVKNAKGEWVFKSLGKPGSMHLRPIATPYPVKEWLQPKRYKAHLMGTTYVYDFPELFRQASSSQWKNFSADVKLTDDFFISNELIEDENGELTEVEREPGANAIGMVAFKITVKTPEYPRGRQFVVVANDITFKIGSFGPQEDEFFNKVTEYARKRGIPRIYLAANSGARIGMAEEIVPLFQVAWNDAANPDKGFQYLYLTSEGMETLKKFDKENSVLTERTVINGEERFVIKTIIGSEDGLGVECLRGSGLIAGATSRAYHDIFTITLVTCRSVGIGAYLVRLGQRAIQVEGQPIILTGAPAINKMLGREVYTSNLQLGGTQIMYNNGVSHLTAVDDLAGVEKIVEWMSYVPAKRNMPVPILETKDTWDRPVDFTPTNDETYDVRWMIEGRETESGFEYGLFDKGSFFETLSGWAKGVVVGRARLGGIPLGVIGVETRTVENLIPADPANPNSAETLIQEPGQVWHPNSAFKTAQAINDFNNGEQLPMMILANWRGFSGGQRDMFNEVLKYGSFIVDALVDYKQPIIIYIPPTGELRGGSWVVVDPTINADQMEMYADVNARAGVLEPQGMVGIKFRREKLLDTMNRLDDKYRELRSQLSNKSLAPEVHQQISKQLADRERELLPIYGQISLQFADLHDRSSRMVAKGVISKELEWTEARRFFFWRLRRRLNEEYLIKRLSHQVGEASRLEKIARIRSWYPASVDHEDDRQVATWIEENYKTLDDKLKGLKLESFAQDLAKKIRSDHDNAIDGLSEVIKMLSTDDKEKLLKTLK

Row | SMILES | IC50 (human (hACC2); Table 2a) | IC50 (human (hACC2); Table 2b, additional results) | IC50 (fungal (fACC2); Table 2a) | IC50 (fungal (fACC2); Table 2b, additional results) | MIC (C. albicans; [5]) | MIC (C. albicans; [6]) | MIC (C. krusei; [7]) | MIC (C. krusei; [8]) | MIC (C. parapsilosis; [9]) | MIC (C. parapsilosis; [10]) | IC90 (Botrtyis cinerea (Bc); [11]) | IC90 [1, 12] | IC90 (Diplodia maydis (Dm); [13]) | IC90 [2, 14] | IC90 [3, 15] | IC90 [4, 16] | IC90 (Rhizoctonia solani (Rs); [17]) | IC90 (Septoria tritici (St); [18]) | other results
1 | COc1ccc(F)cc1[C@H](Cn1c(=O)n([C@H](C)C(=O)NC(C)C)c(=O)c2c(C)c(-n3nccn3)sc21)OCCC#N [Compound I-138] | 1 to 5 nM | 1 to 5 nM | 1 to 5 nM | 0.3 to 1 nM | – | – | – | – | – | – | – | – | – | – | – | – | – | – | MIC (C. albicans; read-out: MIC, C. albicans ATCC 90028, Table 3a, 3 replicates, MIC recorded at 48 h): 0.25 to 1 µg/mL (≈ 0.428 to 1.71 µM); MIC (C. albicans; read-out: MIC, C. albicans ATCC 90028, Table 3b (additional results), 3 replicates, MIC recorded at 48 h): > 4.01 µg/mL; MIC (C. krusei; read-out: MIC, C. krusei ATCC 6258, Table 3a, 3 replicates, MIC recorded at 48 h): 0.25 to 1 µg/mL (≈ 0.428 to 1.71 µM); MIC (C. krusei; read-out: MIC, C. krusei ATCC 6258, Table 3b (additional results), 3 replicates, MIC recorded at 48 h): 2.01 to 4 µg/mL (≈ 3.44 to 6.85 µM); MIC (C. parapsilosis; read-out: MIC, C. parapsilosis ATCC 22019, Table 3a, 3 replicates, MIC recorded at 48 h): 0.25 to 1 µg/mL (≈ 0.428 to 1.71 µM); MIC (C. parapsilosis; read-out: MIC, C. parapsilosis ATCC 22019, Table 3b (additional results), 3 replicates, MIC recorded at 48 h): 1.01 to 2 µg/mL (≈ 1.73 to 3.43 µM); IC90 (Botrtyis cinerea (Bc); read-out: Concentration at 90% Inhibition Bc, Botrtyis cinerea): 0.4 µg/mL (≈ 0.685 µM); IC90 ([1]; read-out: Concentration at 90% Inhibition Cg, Collectotrichum graminicola): 0.08 µg/mL (≈ 0.137 µM); IC90 (Diplodia maydis (Dm); read-out: Concentration at 90% Inhibition Dm, Diplodia maydis): 0.08 µg/mL (≈ 0.137 µM); IC90 [2]: 0.08 µg/mL (≈ 0.137 µM); IC90 ([3]; read-out: Concentration at 90% Inhibition Fv, Fusarium virguliforme, growth inhibition at 48 hours vs 2% DMSO control): 0.4 µg/mL (≈ 0.685 µM); IC90 ([4]; read-out: Concentration at 90% Inhibition Pc, Phytophthora capsici, growth inhibition at 48 hours vs 2% DMSO control): 2 µg/mL (≈ 3.43 µM); IC90 (Rhizoctonia solani (Rs); read-out: Concentration at 90% Inhibition Rs, Rhizoctonia solani, mycelial plugs, growth inhibition at 48 hours vs 2% DMSO control): 0.08 µg/mL (≈ 0.137 µM); IC90 (Septoria tritici (St); read-out: Concentration at 90% Inhibition St, Septoria tritici): 2 µg/mL (≈ 3.43 µM)
2 | COc1ccc(F)cc1[C@H](Cn1c(=O)n([C@H](C)C(=O)N(C)C(C)C)c(=O)c2c(C)c(-n3nccn3)sc21)OCCC#N [Compound I-139] | 5 to 10 nM | 1 to 5 nM | 5 to 10 nM | 1 to 5 nM | 0.25 to 1 µg/mL (≈ 0.418 to 1.67 µM) | 2.01 to 4 µg/mL (≈ 3.36 to 6.69 µM) | 0.25 to 1 µg/mL (≈ 0.418 to 1.67 µM) | 2.01 to 4 µg/mL (≈ 3.36 to 6.69 µM) | 1.1 to 2 µg/mL (≈ 1.84 to 3.35 µM) | 2.01 to 4 µg/mL (≈ 3.36 to 6.69 µM) | 0.4 µg/mL (≈ 0.669 µM) | 0.4 µg/mL (≈ 0.669 µM) | 0.08 µg/mL (≈ 0.134 µM) | 0.4 µg/mL (≈ 0.669 µM) | 0.4 µg/mL (≈ 0.669 µM) | > 50 µg/mL | 0.08 µg/mL (≈ 0.134 µM) | > 50 µg/mL | –
3 | CCNC(=O)C(C)(C)n1c(=O)c2c(C)c(-n3nccn3)sc2n(C[C@H](OCCC#N)c2cc(F)ccc2OC)c1=O [Compound I-140] | 5 to 10 nM | 5 to 10 nM | 1 to 5 nM | 1 to 5 nM | 1.1 to 2 µg/mL (≈ 1.88 to 3.43 µM) | 2.01 to 4 µg/mL (≈ 3.44 to 6.85 µM) | 0.25 to 1 µg/mL (≈ 0.428 to 1.71 µM) | 2.01 to 4 µg/mL (≈ 3.44 to 6.85 µM) | 2.1 to 4 µg/mL (≈ 3.6 to 6.85 µM) | 1.01 to 2 µg/mL (≈ 1.73 to 3.43 µM) | 0.4 µg/mL (≈ 0.685 µM) | 0.4 µg/mL (≈ 0.685 µM) | 0.4 µg/mL (≈ 0.685 µM) | 0.08 µg/mL (≈ 0.137 µM) | 0.4 µg/mL (≈ 0.685 µM) | > 50 µg/mL | 0.08 µg/mL (≈ 0.137 µM) | > 50 µg/mL | –
4 | CNC(=O)C(C)(C)n1c(=O)c2c(C)c(-n3nccn3)sc2n(C[C@H](OCCC#N)c2cc(F)ccc2OC)c1=O [Compound I-141] | 5 to 10 nM | 5 to 10 nM | 1 to 5 nM | 1 to 5 nM | 2.1 to 4 µg/mL (≈ 3.69 to 7.02 µM) | > 4.01 µg/mL | 2.1 to 4 µg/mL (≈ 3.69 to 7.02 µM) | 2.01 to 4 µg/mL (≈ 3.53 to 7.02 µM) | 2.1 to 4 µg/mL (≈ 3.69 to 7.02 µM) | 2.01 to 4 µg/mL (≈ 3.53 to 7.02 µM) | 2 µg/mL (≈ 3.51 µM) | 10 µg/mL (≈ 17.6 µM) | 2 µg/mL (≈ 3.51 µM) | 0.08 µg/mL (≈ 0.14 µM) | 2 µg/mL (≈ 3.51 µM) | > 50 µg/mL | 0.08 µg/mL (≈ 0.14 µM) | > 50 µg/mL | –
5 | CCNC(=O)C(C)(C)n1c(=O)c2c(C)c(-n3nccn3)sc2n(C[C@H](OCCC#N)c2ccccc2OC)c1=O [Compound I-142] | 1 to 5 nM | 1 to 5 nM | 1 to 5 nM | 1 to 5 nM | 2.1 to 4 µg/mL (≈ 3.71 to 7.07 µM) | 2.01 to 4 µg/mL (≈ 3.55 to 7.07 µM) | 1.1 to 2 µg/mL (≈ 1.94 to 3.54 µM) | 2.01 to 4 µg/mL (≈ 3.55 to 7.07 µM) | 2.1 to 4 µg/mL (≈ 3.71 to 7.07 µM) | 1.01 to 2 µg/mL (≈ 1.79 to 3.54 µM) | 0.4 µg/mL (≈ 0.707 µM) | 2 µg/mL (≈ 3.54 µM) | 2 µg/mL (≈ 3.54 µM) | 0.4 µg/mL (≈ 0.707 µM) | 0.4 µg/mL (≈ 0.707 µM) | > 50 µg/mL | 0.08 µg/mL (≈ 0.141 µM) | > 50 µg/mL | –
6 | CNC(=O)C(C)(C)n1c(=O)c2c(C)c(-n3nccn3)sc2n(C[C@H](OCCC#N)c2ccccc2OC)c1=O [Compound I-143] | 5 to 10 nM | 5 to 10 nM | 1 to 5 nM | 1 to 5 nM | 2.1 to 4 µg/mL (≈ 3.81 to 7.25 µM) | 2.01 to 4 µg/mL (≈ 3.64 to 7.25 µM) | 2.1 to 4 µg/mL (≈ 3.81 to 7.25 µM) | 2.01 to 4 µg/mL (≈ 3.64 to 7.25 µM) | 2.1 to 4 µg/mL (≈ 3.81 to 7.25 µM) | 1.01 to 2 µg/mL (≈ 1.83 to 3.63 µM) | 2 µg/mL (≈ 3.63 µM) | > 50 µg/mL | 10 µg/mL (≈ 18.1 µM) | 0.08 µg/mL (≈ 0.145 µM) | 10 µg/mL (≈ 18.1 µM) | > 50 µg/mL | 0.08 µg/mL (≈ 0.145 µM) | > 50 µg/mL | –

Source: US10800791B2, “Triazole ACC inhibitors and uses thereof” (Gilead Apollo, LLC, priority 2015, dated 2020)
